Source: US20110319360A1, “Method of including apoptosis/Cell death in leukemia cell using a purine nucleoside analogue” (U.S. Department of Veterans Affairs, priority 2010, published 2011)
Like-named read-outs stand apart in the source and are kept apart here.

Key:
normal PBMCs [1] = assay: MTS cytotoxicity assay on PBMCs from normal donors; assay type: cell-based, human; details: for EC50: Homo sapiens, PBMC
Protocol: For toxicity studies involving normal blood cells, normal volunteers were enrolled in an IRB-approved protocol for blood collection. PBMCs were isolated from heparin-anticoagulated blood by ficoll-Hypaque density gradient centrifugation.
2.5×10^5 CLL cells were incubated in triplicate or quadruplicate in a 96-well tissue culture plate (Costar, Corning, N.Y.) with serial dilutions of LMP-420, fludarabine, and/or recombinant TNF-alpha (R&D Systems, Minneapolis, Minn.) in Hybridoma serum free media (SFM) (GIBCO/Invitrogen, Carlsbad, Calif.) containing 10% heat-inactivated fetal bovine serum (FBS) (Sigma) at 37° C. with 5% CO2. After 72 hours, 20 μl CellTiter 96® AQueous One Solution Cell Proliferation Assay (Promega, Madison, Wis.) MTS (3-(4,5 dimethylthiazol-2-yl)-5-(3-carboxymethoxyphenyl-2-(4-sulfophenyl)-2H-tetrazolium) reagent was added to each well and the absorbance was read at 490 nm on a Thermomax microplate reader (Molecular Devices, Sunnyvale, Calif.). We calculated fractional cytotoxicity as performed previously (Reference 12), comparing absorbance at 490 nm from treated cells to control cells incubated with media alone.
The concentration effective at killing 50% of CLL cells compared to media alone (ED50) was calculated when 50% fractional cytotoxicity occurred within the range of serial dilutions tested (Reference 12). If the ED50 fell below or above this range, it was set to either the lowest or the highest concentration tested, respectively, for the purposes of statistical analyses and graphical representation.

normal PBMCs [2] = assay: [3H]-thymidine proliferation assay, mitogen-stimulated normal PBMCs; assay type: cell-based, human; details: for IC50: Homo sapiens, PBMC, 96 h, read-out: IC50 for suppression of mitogen-induced proliferation
Protocol: CLL cells (2×10^5 cells/well) were cultured in quadruplicate in a volume of 200 μl in 96-well tissue culture plates for 96 hours with 1 μM CpG-oligodeoxynucleotides (ODN) DSP30 (Reference 14) (Midland Certified Reagent Company, Midland, Tex.) and 100 units/ml IL-2 (R&D Systems) in the presence or absence of drug. As controls, cells were treated with media without DSP30/IL-2. Cells were incubated with 1 μCi/well [methyl-^3H]-thymidine (specific activity 6.7 Ci/mmol, PerkinElmer, Waltham, Mass., USA) for 14-18 hours prior to harvesting onto glass-fiber filters using a semi-automated cell harvester. [^3H]-thymidine incorporation was measured as counts per minute (cpm) using a Tri-Carb 2100 timed-resolved liquid scintillation counter (PerkinElmer). The same protocol was utilized for proliferation assays with normal PBMCs, with the exception that growth was stimulated by treatment with 10 μg/ml Phytohemagglutinin-P (PHA, Sigma), 5 μg/ml concanavalin A (ConA, Sigma), 2 μg/ml pokeweed mitogen (PWM, Sigma), 25 ng/ml muromonab-CD3 (α-CD3, Ortho Pharmaceuticals, Raritan, N.J.), or 50 ng/ml phorbol myristate acetate (PMA, Sigma) plus 1 μg/ml ionomycin (iono, Sigma) for 96 hours. Proliferation is reported as percent of control (drug-treated cpm/control-treated cpm×100%).

[3] = system: CD34+ hematopoietic progenitor cells (myeloid colonies); assay: Colony formation assay, myeloid colonies; assay type: cell-based, human
Protocol: CD34^+ hematopoietic progenitor cells were isolated from PBMCs from two healthy donors using the CD34 Microbead Kit (Miltenyi Biotec, Auburn, Calif.). 10^3 CD34^+-enriched cells were cultured in a 35 mm culture plate (1000 cells/plate) with or without LMP-420 or fludarabine in 1.1 ml Human Methylcellulose Complete Media (R&D Systems) according to the manufacturer's protocol. Plates were incubated for 14 days at 37° C. in humidified 5% CO2. Each treatment group was tested in triplicate. Colonies on plates were scored by two independent observers, blinded to the treatment groups, by microscopic evaluation under 10× and 20× power. Colonies were categorized as being of either erythroid or myeloid lineage.

[4] = Prior in vivo toxicity studies in rodents

Nc1nc(Cl)c2ncn(CCCCCB(O)O)c2n1 [LMP-420, 2-amino-6-chloro-9-[5(dihydroxyboryl)-pentyl] purine]
potentiation of fludarabine cytotoxicity on normal PBMCs (normal PBMCs [1]; 62 or 250 nM LMP-420 with fludarabine, 72 hours, n=3): did not potentiate
EC50 (normal PBMCs [1]; 72 hours, MTS, not reached at up to 512 μM, read-out: median ED50 on normal PBMCs): > 512 µM
EC50 (normal PBMCs [1]; mean, PBMCs from healthy blood donors (n = 3-6), read-out: ED50 (μM), PBMC): > 512 µM
PBMC proliferation IC50 relative to ED50 in CLL cells (normal PBMCs [2]): 100- to 250 fold
IC50 (normal PBMCs [2]; Con A, 96 hours): 71 µM
IC50 (normal PBMCs [2]; PHA, 96 hours): > 90 µM
IC50 (normal PBMCs [2]; PMA/Iono, 96 hours): > 90 µM
IC50 (normal PBMCs [2]; PWM, 96 hours): > 90 µM
IC50 (normal PBMCs [2]; α-CD3, 96 hours): 33 µM
myeloid colony IC50 relative to CLL ED50 [3]: greater than 40 fold
IC50 ([3]; Homo sapiens, 336 h, 14 days, healthy donors (n=2), read-out: mean IC50 for normal myeloid colony formation): 25 µM
peak plasma level at non-toxic doses [4]: greater than 10 μM
